For orientation: MIC means the smallest concentration in the dilution series that meets the test's criterion for growth inhibition. A higher MIC goes with weaker potency.

Some test systems named below: Escherichia coli HB101; Escherichia coli UB1005; Escherichia coli KF111; Escherichia coli KF130; Staphylococcus aureus; Escherichia coli W160-37.
What all share (assay): ≥ marks a high value that may be exact or a test limit, other limits are often not marked, values filed in µg/mL are converted to µM
Assay [1] relates to Staphylococcus epidermidis KCTC 3096.
Assay [2] relates to Aspergillus fumigatus KCTC 6145.
The subject of assay [3] is Escherichia coli ATCC 25922.
For assay [4], the system named is Bacillus subtilis KCTC 1998.
Assay [5] deals with Bacillus subtilis KCTC 1918.
Assay [6] relates to Pseudomonas aeruginosa KCTC 1637.
Assay [7] deals with Listeria monocytogenes KCTC 3710.
The test system of assay [8] is Proteus vulgaris KCTC 2433.
Assay [9] deals with Pseudomonas aeruginosa ATCC 15692.
In assay [10] the test system is Candida albicans KCTC 7270.
Assay [11] deals with Staphylococcus aureus ATCC 25923.
Assay [12] relates to Trichosporon beigelii KCTC 7707.
The subject of assay [13] is Aspergillus awamori KCTC 6915.
Assay [14] relates to Salmonella typhimurium KCTC 1926.
Assay [15] relates to Aspergillus flavus KCTC 6905.
The test system of assay [16] is Aspergillus parasiticus KCTC 6598.
The subject of assay [17] is Listeria monocytogenes ATCC 19115.
In assay [18] the test system is Staphylococcus epidermidis ATCC 12228.
Assay [19] relates to Staphylococcus aureus ATCC 9144.
The subject of assay [20] is Corynebacterium glutamicum ATCC 13032.
For assay [21], the system named is Pseudomonas aeruginosa ATCC 27853.
Assay [22] deals with Pseudomonas aeruginosa K799.
The subject of assay [23] is Staphylococcus epidermidis.
Assay [24] has as its system Pseudomonas aeruginosa H374.
Assay [25] relates to Salmonella enterica subsp. enterica serovar Typhimurium ATCC 14028s.
Assay [26] deals with Pseudomonas aeruginosa H744.
Assay [27] relates to Clavibacter michiganensis subsp. michiganensis DSM 46294.
In assay [28] the test system is Pseudomonas syringae pv. syringae DSM 10604.
Assay [29] has as its system Pseudomonas corrugata DSM 7228.
For assay [30], the system named is Pseudomonas syringae pv. tomato DC3000.
For assay [31], the system named is Pectobacterium carotovorum subsp. carotovorum DSM 30168.
In assay [32] the test system is Xanthomonas vesicatoria DSM 50861.
Assay [33] deals with Staphylococcus aureus 90857.

The structures appear in SMILES notation. In brackets after ≈: the same amount, converted by molar mass. Several values for one entry are separate records, joined by “and”; a condition that tells them apart may be missing. Identical values can stand only once.

As for `CC[C@H](C)[C@H](NC(=O)[C@H](CCCCN)NC(=O)[C@H](CCCCN)NC(=O)[C@H](C)NC(=O)[C@H](CC(C)C)NC(=O)[C@H](CCCCN)NC(=O)[C@H](CCCCN)NC(=O)[C@H](CC(C)C)NC(=O)[C@H](CCCN=C(N)N)NC(=O)[C@H](CCCCN)NC(=O)[C@H](C)N)C(=O)N[C@@H](Cc1c[nH]c2ccccc12)C(=O)N[C@@H](CC(N)=O)C(=O)N[C@@H](Cc1c[nH]c2ccccc12)C(=O)N[C@@H](CCCCN)C(N)=O` [AKRLKKLAKKIWNWK], the MIC in [1] was 16 µM (≈ 30.6 µg/mL); in [2], 4 µM (≈ 7.64 µg/mL); in [3], 22.6 µM (≈ 43.2 µg/mL); in assay [4], 4 µM (≈ 7.64 µg/mL); in assay [5], 4 µM (≈ 7.64 µg/mL); in assay [6], 2 µM (≈ 3.82 µg/mL). Further, the MIC in [7] was 2 µM (≈ 3.82 µg/mL); in assay [8], 4 µM (≈ 7.64 µg/mL); in assay [9] it was 2 µM (≈ 3.82 µg/mL); in [10] it was 16 µM (≈ 30.6 µg/mL); in [11], 5.66 µM and 16 µM; in assay [12] it was not below 32 µM. In addition, the MIC was 16 µM (≈ 30.6 µg/mL) in [13]; 2 µM (≈ 3.82 µg/mL) in [14]; not below 32 µM in [15]; 8 µM (≈ 15.3 µg/mL) in [16]; 2 µM (≈ 3.82 µg/mL) in assay [17]; 16 µM (≈ 30.6 µg/mL) in [18].

`CC[C@H](C)[C@H](NC(=O)[C@@H]1CCCN1C(=O)[C@H](CCCCN)NC(=O)[C@@H]1CCCN1C(=O)[C@H](CCCN=C(N)N)NC(=O)CNC(=O)[C@@H]1CCCN1C(=O)[C@H](Cc1ccccc1)NC(=O)[C@@H]1CCCN1C(=O)[C@H](CCCN=C(N)N)NC(=O)[C@@H]1CCCN1C(=O)[C@H](CCCN=C(N)N)NC(=O)CN)C(=O)N[C@@H](Cc1ccccc1)C(=O)N[C@@H](CCCN=C(N)N)C(=O)N1CCC[C@H]1C(=O)N[C@@H](CCCN=C(N)N)C(=O)O` [GRPRPFPGRPKPIFRPR]: the MIC in [3] was 70.7 µM (≈ 144 µg/mL); in [19], not below 100 µM; against Escherichia coli HB101, 25 µM (≈ 50.8 µg/mL); in assay [20], 3.1 µM (≈ 6.3 µg/mL); in assay [21], 70.7 µM (≈ 144 µg/mL).

For `CC[C@H](C)[C@H](NC(=O)[C@@H]1CCCN1C(=O)[C@H](CCCCN)NC(=O)[C@H](CC(C)C)NC(=O)[C@H](C)NC(=O)[C@@H](NC(=O)[C@H](Cc1cnc[nH]1)NC(=O)[C@H](CC(C)C)NC(=O)[C@@H](NC(=O)[C@@H](NC(=O)[C@H](CCCN=C(N)N)NC(=O)[C@H](C)NC(=O)[C@@H]1CCCN1C(=O)[C@H](CO)NC(=O)[C@H](CCCCN)NC(=O)[C@H](Cc1ccccc1)NC(=O)[C@@H](NC(=O)[C@H](CCCCN)NC(=O)[C@H](CC(C)C)NC(=O)[C@H](Cc1ccccc1)NC(=O)[C@H](CO)NC(=O)[C@H](CCCCN)NC(=O)[C@H](Cc1c[nH]c2ccccc12)NC(=O)[C@@H](N)CCCCN)[C@@H](C)O)[C@@H](C)O)C(C)C)[C@@H](C)O)C(=O)N[C@@H](CO)C(=O)N[C@@H](CO)C(=O)O` [KWKSFLKTFKSPARTVLHTALKPISS], the minimum inhibitory concentration (MIC) turned out to be 1.35 µM (≈ 4 µg/mL) in the assay with Escherichia coli UB1005; 10.8 µM (≈ 32 µg/mL) in [22]; 1.35 µM (≈ 4 µg/mL) against Escherichia coli KF111; 21.5 µM (≈ 64 µg/mL) in assay [23]; 10.8 µM (≈ 32 µg/mL) in [24]; 10.8 µM (≈ 32 µg/mL) in assay [25]. The MIC was found to be 4 µM (≈ 11.9 µg/mL) in assay [21], 2.69 µM (≈ 8 µg/mL) in the assay on Escherichia coli KF130 and 10.8 µM (≈ 32 µg/mL) in [26].

For the compound `CC[C@H](C)[C@H](NC(=O)[C@@H]1CCCN1C(=O)[C@H](CCCCN)NC(=O)[C@H](CC(C)C)NC(=O)[C@H](C)NC(=O)[C@@H](NC(=O)[C@H](Cc1ccc(O)cc1)NC(=O)[C@H](Cc1ccccc1)NC(=O)[C@@H](NC(=O)[C@@H](NC(=O)[C@H](CCCCN)NC(=O)[C@@H](NC(=O)[C@@H]1CCCN1C(=O)[C@H](CO)NC(=O)[C@H](CCCCN)NC(=O)[C@H](CC(C)C)NC(=O)[C@@H](NC(=O)[C@H](CCCCN)NC(=O)[C@H](CC(C)C)NC(=O)[C@H](Cc1ccccc1)NC(=O)[C@H](CO)NC(=O)[C@H](CCCCN)NC(=O)[C@H](Cc1c[nH]c2ccccc12)NC(=O)[C@@H](N)CCCCN)[C@@H](C)O)C(C)C)[C@@H](C)O)C(C)C)[C@@H](C)O)C(=O)N[C@@H](CO)C(=O)N[C@@H](CO)C(=O)O` [KWKSFLKTLKSPVKTVFYTALKPISS], the MIC against Escherichia coli UB1005 amounted to 0.667 µM (≈ 2 µg/mL); in [22] it was 5.34 µM (≈ 16 µg/mL); in the assay with Escherichia coli KF111, 0.667 µM (≈ 2 µg/mL); in [23], 10.7 µM (≈ 32 µg/mL); in assay [24], 5.34 µM (≈ 16 µg/mL); in assay [25] it was 5.34 µM (≈ 16 µg/mL). Further, the minimal inhibitory concentration (MIC) against Escherichia coli KF130 was found to be 0.667 µM (≈ 2 µg/mL); in assay [26], 5.34 µM (≈ 16 µg/mL).

Take `CC[C@H](C)[C@H](NC(=O)[C@H](CC(C)C)NC(=O)[C@H](CCCCN)NC(=O)[C@H](CCCCN)NC(=O)[C@H](CC(C)C)NC(=O)[C@@H](NC(=O)[C@H](CCCCN)NC(=O)[C@H](CCCCN)NC(=O)[C@@H](NC(=O)[C@H](Cc1ccccc1)NC(=O)[C@H](CCCN=C(N)N)NC(=O)[C@@H](N)CC(C)C)[C@@H](C)CC)[C@@H](C)CC)C(N)=O` [LRFIKKILKKLI]: the MIC in assay [27] was 0.165 µM (≈ 0.25 µg/mL); in assay [28] it was 0.165 µM (≈ 0.25 µg/mL); in [29] it was 1.65 µM (≈ 2.5 µg/mL); in assay [30] it was 0.661 µM (≈ 0.999 µg/mL); in [31], 1.65 µM (≈ 2.5 µg/mL); in assay [32], 0.0661 µM (≈ 0.0999 µg/mL). Moreover, the MIC in [33] amounted to 0.625 µM (≈ 0.945 µg/mL).

`CC[C@H](C)[C@H](NC(=O)[C@H](Cc1c[nH]c2ccccc12)NC(=O)[C@H](CCCCN)NC(=O)[C@H](CO)NC(=O)[C@H](CC(C)C)NC(=O)[C@H](Cc1ccccc1)NC(=O)[C@H](CCCCN)NC(=O)[C@H](CC(C)C)NC(=O)[C@H](CCCCN)NC(=O)[C@@H]1CCCN1)C(=O)NCC(=O)O` [PKLKFLSKWIG]: the MIC in the assay with Staphylococcus aureus is 154 µM (≈ 203 µg/mL); in the assay with Escherichia coli W160-37 it was not below 154 µM.

For `CC(C)C[C@H](NC(=O)[C@H](CCCCN)NC(=O)[C@H](CCCCN)NC(=O)[C@H](CCCCN)NC(=O)[C@@H](N)CCCN=C(N)N)C(=O)N[C@@H](CCCCN)C(=O)N[C@H](C(=O)N[C@H](C(=O)N[C@@H](CCCCN)C(=O)N[C@@H](CCCN=C(N)N)C(=O)N[C@@H](CC(C)C)C(=O)N[C@H](C(N)=O)C(C)C)C(C)C)C(C)C` [RKKKLKVVKRLV], the MIC in assay [27] is 6.69 µM (≈ 9.99 µg/mL); in assay [28], 3.34 µM (≈ 5 µg/mL); in [29], 6.69 µM (≈ 9.99 µg/mL); in assay [30], 0.669 µM (≈ 0.999 µg/mL); in assay [31], 6.69 µM (≈ 9.99 µg/mL); in assay [32] it was 6.69 µM (≈ 9.99 µg/mL). The same compound came in with an MIC in [33] not below 62.5 µM.

Source of the values: DBAASP.
